This passage reports IC50, melting point and inhibition results from patent US20060128729A1, “Novel bicyclic heterocyclic compounds, process for their preparation and compositions containing them” (priority 2004, published 2006).

The test system of series [1] is human aortic smooth muscle cells. The experiment in a line: Smooth muscle cell proliferation assay (radiolabeled thymidine incorporation or CellTiter AQ). It is filed as cell-based. Particulars: human aortic SMC; for IC50: 24 h post treatment in serum-containing growth medium, read-out: Activity: concentration giving 50% inhibition of smooth muscle cell proliferation. How it is done: Primary cultures of human aortic smooth muscle cells were obtained from Clonetics. SMC were initially grown in T-75 flasks prior to seeding in 96 well plates. The 96-well plates were seeded with 4000 cells/well. The following day cells were washed with serum free medium and left in serum free media for 24 hours for serum starvation. The next day cells received growth medium containing serum with or without compound. 24 h post treatment cell proliferation was assayed either assessing the incorporation of radiolabeled thymidine to DNA or using a non-radioactive cell proliferation kit from Promega (CellTiter AQ).
For orientation: Incorporation of labelled thymidine or its analogues reports DNA synthesis.

The test system of series [2] is MCP-1 (monocyte chemoattractant protein 1). The series can be described thus: MCP-1 ELISA on supernatants of stimulated human aortic endothelial cells. It is filed as cell-based. The following applies: Homo sapiens, Endothelial cell, HAECs treated with TNFα (0.05 ng/ml) or glycated human serum albumin (300 μg/ml) for 18-24 h; read-out: IC50 in MCP-1 enzyme-linked immunosorbent assay. As for the experimental part:
(§1) For inflammation assays, human aortic endothelial cells (HAECS) in 96 well plates were washed once with treatment medium (basal medium containing 1% FBS). Cells were treated with an inflammatory agent such as TNFα (0.05 ng/ml) or glycated human serum albumin (US Biologicals) as source of advanced glycation end products (AGEs) (300 μg/ml) for 18-24 h in the presence or absence of specified amount of compound. Cell supernatants were collected and used for the estimation of MCP-1 (monocyte chemoattractant protein 1) or IL-6 (interleukin-6) by ELISA. Cell layers were washed and used for determining the levels of vascular cell adhesion molecule-1 (VCAM-1).
MCP-1 ELISA was carried out using Quantikine Human MCP-1 kit as described by the manufacturer (R&D Systems, Inc.). Mouse anti-human MCP-1 was used as the capture antibody and HRP (horse radish peroxidase)-conjugated goat anti-human MCP-1 antibody was used as detection antibody. Culture medium was incubated with the capture antibody (in 96-well plate) for 2 h at room temperature. Wells were washed three times with wash buffer (0.05% Tween-20 in PBS) followed by incubation with detection antibody for 2 h at room temperature. Color development was read at […] in a microplate reader.
A general note: In an ELISA, binding on a coated surface is turned into a signal by an enzyme label.

The subject of series [3] is VCAM-1 (vascular cell adhesion molecule-1). The experiment in a line: VCAM-1 ELISA on cell layers of stimulated human aortic endothelial cells. It is filed as cell-based. The following applies: Homo sapiens, Endothelial cell, HAECs treated with TNFα (0.05 ng/ml) or glycated human serum albumin (300 μg/ml) for 18-24 h; read-out: IC50 in VCAM-1 enzyme-linked immunosorbent assay. As for the experimental part:
as §1
The cells were fixed cells with 100% methanol for 10 min at room temperature. The methanol was removed and the plate was air-dried. 100 ul of 1:1000 diluted primary antibody (polyclonal goat anti-human VCAM-1—R&D Systems #BBA19) was then added and incubated for 2 h at 37 C. The cells were washed with PBS and 100 ul of 1:5000 dilution of secondary antibody (rabbit anti-goat IgG-HRP—Zymed #81-1620) was added and incubated for 1 h at room temperature. Cells were washed and 100 ul of substrate solution (R&D Systems# DY999) was added and incubated for 20 min in the dark at room temp. 50 μl of stop solution (2N sulfuric acid) was added to the wells and absorbency at 450 nm was noted.

Another series concerns IL-6 (interleukin-6). The series can be described thus: IL-6 ELISA on media of stimulated human aortic endothelial cells. It is filed as cell-based. The following applies: Endothelial cell; HAECs treated with TNFα (0.05 ng/ml) or glycated human serum albumin (300 μg/ml) for 18-24 h; read-out: IC50 in IL-6 enzyme-linked immunosorbent assay. How it is done: as §1
IL-6 levels in endothelial cell media were determined using DuaSet IL-6 ELISA kit from R&D Systems (Cat No DY206) as described by the manufacturer. Mouse anti-human IL-6 antibody was used as the capture antibody and biotinylated goat anti-human IL-6 was used as detection antibody. Culture medium was incubated with the capture antibody (in 96-well plate) for 2 h at room temperature. Wells were washed three times with wash buffer (0.05% Tween-20 in PBS) followed by incubation with detection antibody for 2 h at room temperature. The wells were then incubated with streptavidin HRP and color development was read at 450 nm in a microplate reader.

Counter-ions that a name gives are not always drawn.

On to `CCCc1nn(C)c2c(Nc3ccc(OC)c(F)c3)nc(-c3ccc(F)cc3)nc12` [E 1, (3-fluoro-4-methoxy-phenyl)-[5-(4-fluoro-phenyl)-1-methyl-3-propyl-1H-pyrazolo[4,3-d]pyrimidin-7-yl]-amine hydrochloride], for which the IC50 in series [1] is 0.89 µM; in series [2] it was 7.2 µM; in series [3], 11.8 µM; in the series with IL-6 (interleukin-6), 5.4 µM.

As for `CCCc1nn(C)c2c(Nc3ccc(OC)c(Cl)c3)nc(-c3ccc(F)cc3)nc12.Cl` [E 2, (3-chloro-4-methoxy-phenyl)-[5-(4-fluoro-phenyl)-1-methyl-3-propyl-1H-pyrazolo[4,3-d]pyrimidin-7-yl]-amine-hydrochloride], the melting point (in general, the temperature, or range, at which the solid turns liquid) is 253.65 °C. Moreover, the IC50 in series [1] was 1.62 µM. In addition, the IC50 in series [2] is 13.4 µM. Moreover, the IC50 in series [3] was found to be 10.4 µM. Further, the IC50 in the series on IL-6 (interleukin-6) came to 9 µM.

`CCCc1nn(C)c2c(Nc3ccc4c(c3)OCO4)nc(-c3ccc(F)cc3)nc12.Cl` [E 8, benzo[1,3]dioxol-5-yl-[5-(4-fluoro-phenyl)-1-methyl-3-propyl-1H-pyrazolo[4,3-d]pyrimidin-7-yl]-amine-hydrochloride] gave a melting point of less than 260 °C. Moreover, in series [1], the IC50 was determined as 1 µM. The IC50 in series [2] came out at 8.7 µM. The IC50 in series [3] stood at 12.4 µM.

For `CCCc1nn(C)c2c(Nc3ccc(OC)c(F)c3)nc(-c3cccs3)nc12.Cl` [E 10, (3-fluoro-4-methoxy-phenyl)-(1-methyl-3-propyl-5-thiophen-2-yl-1H-pyrazolo[4,3-d]pyrimidin-7-yl) -amine hydrochloride], the melting point was 238 to 242 °C. In addition, testing at 1 µM in series [1] (at 1 μM, 24 h post treatment) gave an inhibition of 96%. For the same molecule, the IC50 in series [2] turned out to be 1.6 µM. The IC50 in series [3] is 11.8 µM.

Take `CCCc1nn(C)c2c(Nc3ccc(OC)c(Cl)c3)nc(-c3ccccc3)nc12.Cl` [E 27, (3-chloro-4-methoxy-phenyl)-(1-methyl-5-phenyl-3-propyl-1H-pyrazolo[4,3-d]pyrimidin-7-yl)-amine hydrochloride]: the melting point was in the range of 238 to 240 °C. The IC50 in series [1] is 1.28 µM. Moreover, in series [2], the IC50 worked out at 5.7 µM. Also, the IC50 in series [3] stood at 8.4 µM. The IC50 in the series on IL-6 (interleukin-6) was found to be 9.6 µM.

Regarding `CCCc1nn(C)c2c(Nc3ccc(OC)c(F)c3)nc(-c3ccccc3)nc12.Cl` [E 28, (3-fluoro-4-methoxy-phenyl)-(1-methyl-5-phenyl-3-propyl-1H-pyrazolo[4,3-d]pyrimidin-7-yl)-amine hydrochloride], the melting point was in the range of 248 to 250 °C. Besides, in series [1] (at 5 μM, 24 h post treatment), at 5 µM the inhibition was 70%. The IC50 in series [2] was determined as 7.5 µM. In series [3], the IC50 was found to be 8.4 µM.

`COc1ccc(Nc2nc(-c3ccc(F)cc3)cc3c2c(C)nn3C)cc1F` [E 73, (3-fluoro-4-methoxy-phenyl)-[6-(4-fluoro-phenyl)-1,3-dimethyl-1H-pyrazolo[4,3-c]pyridin-4-yl]-amine hydrochloride]: the values for the IC50 in series [1], in series [2] and in series [3] were 0.9 µM, 4.1 µM and 13.7 µM, respectively.

Consider `COc1ccc(Nc2nc(-c3ccc(F)cc3)nc3c2cnn3-c2ccccc2)cc1F` [E 80, (3-fluoro-4-methoxy phenyl)-[6-(4-fluoro-phenyl)-1-phenyl-1H-pyrazolo[3,4-d]-pyrimidin-4yl]amine hydrochloride], for which the IC50 in series [1] was found to be 0.46 µM; in series [2] it was 5.4 µM; in series [3], 11.1 µM.

`Cl.Fc1ccc(-c2nc(Nc3ccc(Cl)c(C(F)(F)F)c3)c3cnn(-c4ccccc4)c3n2)cc1` [E 81, (4-chloro-3-trifluoromethyl-phenyl)-[6-(4-fluoro-phenyl)-1-phenyl-1H-pyrazolo[3,4-d]pyrimidin-4-yl]-amine hydrochloride] returned a melting point of 203.83 °C. Further, in series [1], the IC50 was determined as 3.9 µM. In addition, in series [2], the IC50 came out at 5.2 µM. For the same molecule, in series [3], the IC50 was 8.9 µM.
